Laboratory results from patent US11155580B2, “Modified proteins and methods of use thereof” (YALE UNIVERSITY, priority 2013, dated 2021).
“Also recorded” adds a separate entry of the source. Where a SMILES comes first, the peptide text is derived from it. Where no end group is shown, it is not given here. The star is where a group is joined. X1 = CCN(CC)c1ccc2c(-c3ccc(S(=O)(=O)*)cc3S(=O)(=O)[O-])c3ccc(=[N+](CC)CC)cc-3oc2c1; rhodamine = not defined here

What was measured:
cathepsin D = cathepsin D (Homo sapiens, UniProt P07339); assay: Resistance to acid proteases: cathepsin D; assay type: in vitro ADME; conditions: 50 pmol, 30 min, 37° C., pH 5
Sequence of cathepsin D (P07339 65-412, species assumed): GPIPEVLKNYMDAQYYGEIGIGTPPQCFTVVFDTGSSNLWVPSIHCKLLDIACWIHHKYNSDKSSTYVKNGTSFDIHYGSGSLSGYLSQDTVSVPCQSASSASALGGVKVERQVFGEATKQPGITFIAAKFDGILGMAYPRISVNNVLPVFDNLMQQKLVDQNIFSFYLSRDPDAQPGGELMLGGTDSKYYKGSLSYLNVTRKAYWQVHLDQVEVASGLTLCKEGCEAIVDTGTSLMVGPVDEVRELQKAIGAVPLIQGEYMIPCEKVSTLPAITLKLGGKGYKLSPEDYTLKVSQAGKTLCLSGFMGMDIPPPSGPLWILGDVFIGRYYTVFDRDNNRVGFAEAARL
Protocol: (§1) 50 pmol aPPR, 5.2R, 5.3R, ZF5.3R, TatR (SEQ ID NO:67), or Arg8R (SEQ ID NO:68) were incubated with 5 pg cathepsin B, D, or L for 30 min at 37° C. in 10 μL of 20 mM sodium phosphate buffer (pH 5) containing 150 mM NaCl. At the end of the incubation, the reaction was stopped by adding 40 μL of a solution containing a 84:15:1 ratio of water:EtOH:TFA before analysis by HPLC.

HeLa cells [1] = assay: Effects of endocytosis inhibitors on cell uptake, confocal microscopy; assay type: cell-based; conditions: 1 μM rhodamine labeled, 30 min, 37° C.; for effect of EIPA on uptake: 50 μM EIPA; for effect of dynasore on uptake: 80 μM dynasore; for effect of MβCD on uptake: 5 mM MβCD
Protocol: HeLa cells grown for 24 h in glass bottom plates were incubated with HKR buffer, or HKR buffer containing 80 μM dynasore, 50 μM N-ethyl-isopropyl-amiloride, or 5 mM methyl-β-cyclodextrin for 30 min at 37° C. prior to the addition of 1 μM rhodamine-labeled miniature protein or peptide (Tat (SEQ ID NO:67) and Arg8 (SEQ ID NO:68)). The cells were washed twice with DMEM, the nuclei labeled with Hoescht, and images acquired as described above for colocalization experiments.

HeLa cells [2] = assay: HPLC analysis of cytosolic extracts prepared with streptolysin O; assay type: cell-based; conditions: HeLa cells treated with rhodamine labeled molecule
Protocol: To generate cytosolic extracts, HeLa cells were treated with streptolysin O (SLO), a well characterized bacterial toxin that creates pores in the plasma membranes of target cells (Walev et al., 2002, FASEB 16:237-239). […] Moreover, when the toxin is added to cultured cells at 4° C. and washed with PBS before raising the temperature to 37° C., pores are created only in the plasma membrane and the release of ER, golgi, or endolysosomal contents are avoided (Androlewicz et al., 1993, Proc Natl Acad Sci USA 90:9130-9134).
First, selective release of the cytoplasmic contents of HeLa cells using the published procedures was verified. HeLa cells were treated with 20 μg/mL SLO in PBS containing 5 mM DTT (20 min, 4° C.), washed (three PBS washes, 150 μL each), resuspended in PBS, and incubated at 37° C. for 15 min, after which 1.5 μM propidium iodide (PI), a marker of permeabilized cell membranes, was added.

cathepsin L = cathepsin L (Homo sapiens, UniProt P07711); assay: Resistance to acid proteases: cathepsin L; assay type: in vitro ADME; conditions: 50 pmol, 30 min, 37° C., pH 5
Sequence of cathepsin L (P07711 114-333, species assumed): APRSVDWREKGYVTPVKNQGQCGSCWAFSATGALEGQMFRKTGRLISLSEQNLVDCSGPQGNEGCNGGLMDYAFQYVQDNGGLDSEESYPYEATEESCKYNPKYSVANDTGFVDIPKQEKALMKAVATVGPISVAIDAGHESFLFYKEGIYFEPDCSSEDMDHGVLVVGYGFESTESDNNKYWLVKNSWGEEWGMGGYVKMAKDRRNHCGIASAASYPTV
Protocol: as §1

HeLa cells [3] = assay: Colocalization with Alexa-488-transferrin (Tf488), live cell confocal microscopy; assay type: cell-based; conditions: 1 μM, 30 min
Protocol: To examine the colocalization of rhodamine labeled miniature proteins or peptides with Alexa-488-transferrin (Tf488), HeLa cells were plated (200 μl, 10^4 cells/well, 96 well glass bottom plates, Matrical) the day prior to experiments. The media was replaced with 150 μL Hepes-Krebs-Ringer's (HKR) buffer (140 mM NaCl, 2 mM KCl, 1 mM CaCl2, 1 mM MgCl2, 10 mM Hepes pH 7.4) containing 1 μM miniature protein or 25 nM Alexa-488-transferrin (Molecular Probes) and the cells incubated at 37° C. for 30 min. The cells were then rinsed twice with 200 μL, HKR buffer and nuclei were labeled by overlaying 200 μL HKR containing 300 nM Hoechst 33342 (Molecular Probes Cat. # H3570) for 5 minutes. Images of cells were acquired using a PerkinElmer LiveView spinning disk confocal microscope fitted with a 60×1.2 NA objective. Colocalization with Rab-GFP fusions was examined in an analogous way using HeLa cells transfected with the appropriate expression plasmid.
Colocalization between rhodamine and fluorescein labeled miniature proteins and peptides, or between rhodamine labeled miniature proteins and markers of endocytosis was completed using confocal microscopy. Live cell confocal microscopy was conducted using a PerkinElmer LiveView spinning disk confocal microscope fitted with heated microscope enclosure (maintained at 37° C.), a 60×1.2 NA objective, laser illumination, a Nipkow CSU-1× spinning disk, and a Hammamatsu CS9100 EMCCD camera operated using Velocity software. Alexafluor-488-transferrin was detected using a 488 nm laser and a 520 nm long pass filter; tetraethylrhodamine and Alexafluor-546-transferrin were detected using a 546 nm laser line and a 580 nm long pass filter, Hoescht 33342 was detected using a 405 nm laser line and a 450 nm long pass filter. Images were processed for presentation by using the ‘subtract background’ option and linear contrast adjustments in Image J. All adjustments were applied uniformly to the entire image. Colocalization analysis was performed using the JACOP plugin (Bolte and Cordelières, 2006), available on the ImageJ website. The fraction of rhodamine signal overlapping with EGFP signal (R E G) was calculated using Mander's coefficient and automatic thresholding. Pearson's correlation coefficient (R) was also obtained using the JACOP plugin.

HeLa cells [4] = assay: Peptide degradation in HeLa cells, HPLC of whole cell lysates; assay type: in vitro ADME; conditions: 1 μM, 30 min, RIPA lysate
Protocol: Approximately 200,000 HeLa cells were treated with rhodamine labeled cationic miniature proteins and peptides as described for experiments using flow cytometry to measure peptide uptake. These cells were pelleted in 96 well microtitre plates (300 g, 3 min) and lysed in 40 μL RIPA buffer (150 mM NaCl, 50 mM Tris pH 7.4, 50 mM EDTA pH 7.4, 0.1% SDS, 1% Triton X-100) on ice for 30 min. The insoluble material was cleared from the cell lysate via centrifugation (10,000 g, 10 min) and 20 μL of the supernatant was diluted into 400 μL of 15% CH3CN in water. These samples were analyzed via reverse phase HPLC (Shimadzu Instruments) fitted with a fluorescence detector and a C18 column (Poroshell 120 SB-C18, 2.7 μm, 100 mm×3 mm ID, Agilent).

cathepsin B = cathepsin B (Homo sapiens, UniProt P07858); assay: Resistance to acid proteases: cathepsin B; assay type: in vitro ADME; conditions: 50 pmol, 30 min, 37° C., pH 5
Protocol: as §1

[5] = Circular dichroism thermal melt; assay type: physicochemical; conditions: unlabeled, 25 μM in PBS
Protocol: FIG. 8, comprising FIGS. 8A-8C, depicts the results of circular dichroism (CD) analysis of miniature proteins studied herein. (FIG. 8A) Wavelength dependent CD spectra of miniature proteins at 25 μM concentration in PBS at 37° C. (FIG. 8B) Temperature dependent ellipticity at 222 nm of miniature proteins at 25 μM.
CD spectra of unlabeled aPP-based miniature were recorded from samples containing 25 μM peptide in PBS as described (Luedtke et al., 2007, Nat Chem Biol. 3:779-784). CD spectra of ZF and ZF5.3 in the presence and absence of Zn2+ were recorded from solutions of peptide (12.5-25 μM) dissolved in 10 mM argon-purged Tris-HCL (pH 8.0) in the presence or absence of 0.5 mM dithiothreitol and 2 eq. ZnC12. Samples were incubated for 30 min at RT and analyzed on a Jasco J-810-150S spectropolarimeter. Final plots show background-normalized averages of six scans.

GR★-GFP = assay: GIGT, transient transfection with GR★-GFP; assay type: cell-based; conditions: 500 nM, 30 min, HeLa cells
Protocol: Cells were plated (10,000 cells/well) onto 96-well glass bottom plates (Matrical Bioscience, #MGB096-1-2-LG-L) in full DMEM (HeLa) or full McCoy's 5A (U205) media and allowed to adhere overnight. […] Cells were allowed to transfect for 6 h at 37° C. under 5% CO2 before removing transfection media and replenishing growth media. Image analysis of GIGT using Cell Profiler. Cell image files were loaded into a customizable CellProfiler7 ‘pipeline’ as individual GFP (green) and Hoechst (blue) channels, and converted to grayscale. Nuclei were identified and segmented from the gray Hoechst channel based on Otsu three-class thresholding, with pixels in the middle intensity class assigned to background. Clumped objects were individually distinguished using ‘Laplacian of Gaussian’ modeling and separated by ‘shape’. […] The ratio of mean intensities of the nuclear region divided by the cytosolic region of the GFP image was measured for every cell examined, and 40-80 transfected cells from 15-25 images were acquired for each treatment.
Cells were allowed to incubate in the presence of ligand for 30 min at 37° C. under 5% CO2. […] Fluorescence illumination was initiated using an EXFO X-cite Series 120 Hg arc lamp. […] Fluorescence intensities of individual cells were quantified using the image analysis algorithm CellProfiler.

[6] = tested on: HeLa cervical cancer cells; assay: Internal peptide concentration after co-administration with ZF 5.3; assay type: cell-based
Protocol: HeLa cervical cancer cells were incubated in the presence of either 500 nM ZF 4.3-Rhodamine or 500 nM ZF 4.3-Rhodamine with 1 μM ZF 5.3 for 30 minutes. After incubation, external peptide was removed and internal peptide concentration was measured using a microscope with advanced correlation and detection hardware. In the absence of ZF 5.3, only a small amount of ZF 4.3 enters the cell interior, corresponding to ˜8% of the ZF 4.3 concentration added (FIG. 19). In the presence of ZF 5.3, the amount of ZF 4.3 that enters the cell interior quadrupled, raising to ˜35% of the concentration added (FIG. 19).

[7] = Trafficking of a biologically active peptide (NBD) into the cytosol; assay type: cell-based; conditions: 500 nM NBD fusions
Protocol: Cells were incubated in the presence of either 500 nM ZF 5.3-NBD or Antp-NBD or Arg8-NBD (FIG. 20). After incubation, internal peptide concentration was measured.

Molecule: CC[C@H](C)[C@H](NC(=O)[C@H](CC(C)C)NC(=O)[C@H](CC(=O)O)NC(=O)[C@H](CCCNC(=N)N)NC(=O)[C@@H](NC(=O)[C@@H]1CCCN1C(=O)[C@H](C)NC(=O)[C@H](CC(=O)O)NC(=O)[C@H](CC(=O)O)NC(=O)CNC(=O)[C@@H]1CCCN1C(=O)[C@H](Cc1ccc(O)cc1)NC(=O)[C@@H](NC(=O)[C@@H]1CCCN1C(=O)[C@H](CCC(N)=O)NC(=O)[C@H](CO)NC(=O)[C@@H]1CCCN1C(=O)CNC(=O)[C@@H](N)CCCCNS(=O)(=O)c1ccc(-c2c3ccc(=[N+](CC)CC)cc-3oc3cc(N(CC)CC)ccc23)c(S(=O)(=O)[O-])c1)[C@@H](C)O)C(C)C)C(=O)N[C@@H](CCCNC(=N)N)C(=O)N[C@@H](Cc1ccccc1)C(=O)N[C@@H](Cc1ccc(O)cc1)C(=O)N[C@@H](CCCNC(=N)N)C(=O)N[C@@H](CC(=O)O)C(=O)N[C@@H](CC(C)C)C(=O)N[C@@H](CCCNC(=N)N)C(=O)N[C@@H](CCCNC(=N)N)C(=O)N[C@@H](Cc1ccc(O)cc1)C(=O)N[C@@H](CC(C)C)C(=O)N[C@@H](CC(N)=O)C(=O)N[C@H](C(=O)N[C@H](C(=O)N[C@H](C(=O)N[C@@H](CCCNC(=N)N)C(=O)N[C@@H](Cc1c[nH]cn1)C(=O)N[C@@H](CCCNC(=N)N)C(=O)N[C@@H](Cc1ccc(O)cc1)C(N)=O)[C@@H](C)O)C(C)C)C(C)C [5.3R] (H-K(X1)GPSQPTYPGDDAPVRDLIRFYRDLRRYLNVVTRHRY-NH2)
- degradation by cathepsin D (HPLC) (cathepsin D): cleaved by cathepsin D
- metabolised at 0.5 h (cathepsin D; isolated enzyme cathepsin other, read-out: disappearance after incubation with cathepsin D): ~50%
- effect of EIPA on uptake (HeLa cells [1]): dramatically reduced the uptake
- effect of dynasore on uptake (HeLa cells [1]): completely blocked the uptake
- effect of MβCD on uptake (HeLa cells [1]): completely blocked the uptake
- material found in SLO cytoplasmic extracts (HPLC) (HeLa cells [2]): presence of intact 5.3R; also recorded: a single peak with the same retention time as the starting material
- degradation by cathepsin L (HPLC) (cathepsin L): traces identical to the parent peptide; also recorded: to a smaller extent
- intracellular red fluorescent signal (HeLa cells [3]): red fluorescent puncta throughout the cytosol
- degradation during incubation with HeLa cells (HPLC of whole cell lysates) (HeLa cells [4]): minimal to no cleavage; also recorded: virtually identical to control samples
- degradation by cathepsin B (HPLC) (cathepsin B): several additional small peaks

Molecule: GPSQPTYPGDDAPVRDLRRFYRDLRRYLNVVTRHRYC^acetyl-NH2 (GPSQPTYPGDDAPVRDLRRFYRDLRRYLNVVTRHRYC(Ac)-NH2) [6.3]
- Tm (temperature dependent ellipticity at 222 nm) [5]: 33 °C

Molecule: K^DexGPSQPTYPGDDAPVRDLIRPYRDLQRPLRVVTRHRY (K(dexamethasone)GPSQPTYPGDDAPVRDLIRPYRDLQRPLRVVTRHRY-NH2) [5.2-P2Dex]
- translocation ratio (TR), GR★-GFP (GR★-GFP): 1.35±0.11

Molecule: K^DexGPSQPTYPGDDAPVRDLIRPYRDLRRPLNVVTRHRY (K(dexamethasone)GPSQPTYPGDDAPVRDLIRPYRDLRRPLNVVTRHRY-NH2) [5.3-P2Dex]
- translocation ratio (TR), GR★-GFP (GR★-GFP): 1.64±0.27

Molecule: K^RhodGRKKRRQRRRPPQY-NH2 (K(rhodamine)GRKKRRQRRRPPQY-NH2; reading uncertain; also: printed as K^RhodGRKKRRQRRRPPQY-NH2) [TatR]
- degradation by cathepsin D (HPLC) (cathepsin D): little or no degradation
- effect of EIPA on uptake (HeLa cells [1]): dramatically reduced the uptake
- effect of dynasore on uptake (HeLa cells [1]): completely blocked the uptake
- effect of MβCD on uptake (HeLa cells [1]): completely blocked the uptake
- material found in SLO cytoplasmic extracts (HPLC) (HeLa cells [2]): retention times distinct from the starting material; also recorded: little or no material with the same retention time as the starting material
- degradation by cathepsin L (HPLC) (cathepsin L): little or no degradation
- intracellular red fluorescent signal (HeLa cells [3]): red fluorescent puncta throughout the cytosol
- degradation during incubation with HeLa cells (HPLC of whole cell lysates) (HeLa cells [4]): numerous additional peaks
- degradation by cathepsin B (HPLC) (cathepsin B): little or no degradation

Molecule: RRRRRRRR [Arg8]
- intracellular concentration on co-incubation with ZF 5.3 [6]: did not significantly increase

Molecule: WYSCNVCGKAFVLSRHLNRHLRVHRRAT [ZF5.3]
- trafficking a biologically active peptide into the cytosol [7]: superior to both Antp and Arg8
